The source of these data is patent publication US20220280493A1 (priority 2021, published 2022).

One test deals with "Long-Haul" Covid-19. The experiment in a line: Treatment of "Long-Haul" Covid-19 symptoms in the same patient. The conditions noted are these: for effect of added direct intranasal/lung inhalation: 0.1 ml of the 6% solution, 1-2 times/day. The test is classed as in vivo, human. How it is done:
After patient had discontinued treatment above for several weeks after the first round of disease, subsequent putative recurrent post-acute (“long-haul”) symptoms of Covid-19. These included malaise, fatigue, brain fog, myalgia and musculoskeletal pain, and shortness of breath. […] Treatment was titrated to a clinical response, with a maximum dose of 200 mg/day of Tempol. […] At two such interludes, in place of the Tempol, patient took 100 mg of phenylbutylnitrone (PBN).

A further test has as its system Covid-19, Omicron strain. In words: Treatment of "Break-Thru" Covid-19 infection in the same patient. The test is classed as in vivo, human.
Test [1] relates to nonrespiratory coronavirus unrelated to SARS-CoV-2. Conditions: induced by a nonrespiratory coronavirus; cited from earlier work.

Take `CC(C)(C)[N+]([O-])=Cc1ccccc1` [PBN, 1-alpha-phenyl-tert-butyl nitrone]: in the test on "Long-Haul" Covid-19 (100 mg, at two interludes), the “long-haul symptoms, oral treatment in place of Tempol” value is given as “some subjective clearing of symptoms”. In addition, the “long-haul symptoms, nasal/pulmonary inhalation” value with "Long-Haul" Covid-19 (0.1 ml of a 5% solution in water 3-4 times per day) is listed as “significant symptomatic relief”. Further, the “alleviation of upper respiratory symptoms, alternative intranasal treatments” value in the test with Covid-19, Omicron strain (intranasal 3% gel (Q-tip) or insufflation of 0.2 ml of 3% solution, compared with 6% Tempol spray) is recorded as “effective but the response was slower”.
For `CC1(C)CC(O)CC(C)(C)N1[O]` [Tempol, 4-hydroxy-TEMPO], in the test on "Long-Haul" Covid-19, the “effect of added direct intranasal/lung inhalation” value was “proved helpful”. Moreover, in the test on "Long-Haul" Covid-19 (human, in vivo), the “response of long-haul symptoms (malaise, fatigue, brain fog, myalgia and musculoskeletal pain, shortness of breath)” value is “responded reversibly”. Further, the “symptoms on withdrawal and repeat treatment” value in the test on "Long-Haul" Covid-19 (treatment withdrawn, then repeated) is listed as “Symptoms returned when the treatment was withdrawn, but responded to repeat treatment”. Besides, the “time to alleviation of upper respiratory tract congestion” value in the test with Covid-19, Omicron strain (inhalation of 20 mg, one 0.1 ml spritz of the 6% solution per nostril, followed by insufflation) was 5 to 10 min. Moreover, in test [1], the murine viral encephalomyelitis result is “ameliorates”.
With `CC1(C)CC(O)CC(C)(C)N1O` [Tempol-H, the hydroxylamine reduced form of the nitroxide 4-hydroxy-2,2,6,6-tetramethylpiperidin-1-yloxy], in the test on "Long-Haul" Covid-19, the “effect of added direct intranasal/lung inhalation” value is listed as “proved helpful”.
